Where two headings read alike, the source gives them in different places.
How the values were obtained:
[1] = tested on: IL-4 stimulated expression of CD23 in human Ramos B cells (JAK-1 and JAK-3); assay: Assay for Ramos B-Cell Line Stimulated with IL-4 (CD23 upregulation, FACS); format: cell-based; conditions: Ramos B-cell line stimulated with IL-4, CD23 expression by FACS, read-out: IC50, Example 41
Summary of the method: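 Compound effect on IL-4-driven JAK1/JAK3 signalling is gauged as CD23 surface expression, measured by FACS after 20-24 h of stimulation with IL-4 at 50 units/mL final. A 1 h compound pre-treatment at 37 °C precedes stimulation, and IC50 is derived from the results.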

[2] = tested on: up-regulation of ICAM-1 (CD54) by IFNγ in A549 lung epithelial cells; assay: A549 Epithelial Line Stimulated with IFNγ (ICAM-1 surface expression, FACS); format: cell-based, human; conditions: ICAM-1 expression by FACS, read-out: IC50, Example 43
Description: The activity of the compounds of the invention may additionally be characterized by assaying the effect of the 2,4-substituted pyrimidinediamine compounds described herein on A549 lung epithelial cells and U937 cells. A549 lung epithelial cells and U937 cells up-regulate ICAM-1 (CD54) surface expression in response to a variety of different stimuli. Therefore, using ICAM-1 expression as readout, test compound effects on different signaling pathways can be assessed in the same cell type. Stimulation with IL-1β through the IL-1β receptor activates the TRAF6/NFκB pathway resulting in up-regulation of ICAM-1. IFNγ induces ICAM-1 up-regulation through activation of the JAK1/JAK2 pathway. The up-regulation of ICAM-1 can be quantified by flow cytometry across a compound dose curve and EC50, values are calculated. An exemplary assays of this type are described in greater detail in Examples 43 and 44
A549 lung epithelial cells up-regulate ICAM-1 (CD54) surface expression in response to a variety of different stimuli. Therefore, using ICAM-1 expression as readout, compound effects on different signaling pathways can be assessed in the same cell type. IFNγ up-regulates ICAM-1 through activation of the JAK/Stat pathway. In this example, the up-regulation of ICAM-1 by IFNγ was assessed.
The A549 lung epithelial carcinoma cell line originated from the American Type Culture Collection. Routine culturing was with F12K media (Mediatech Inc., Lenexa, KS, Cat. No. 10-025-CV) with 10% fetal bovine serum, 100 I.U. penicillin and […] streptomycin (complete F12k media). Cells were incubated in a humidified atmosphere of 5% CO2 at 37° C. Prior to use in the assay, A549 cells were washed with PBS and trypsinized (Mediatech Inc., Cat. No. 25-052-CI) to lift the cells. The trypsin cell suspension was neutralized with complete F12K media and centrifuged to pellet the cells. The cell pellet was resuspended in complete F12K media at a concentration of 2.0×10^5/mL. Cells were seeded at 20,000 per well, 100 μL total volume, in a flat bottom tissue culture plate and allowed to adhere overnight.
On day two, A549 cells were pre-incubated with a 2,4-substituted pyrimidinediamine test compound or DMSO (control) (Sigma-Aldrich, St. Louis, MO, Catalog No. D2650) for 1 hour. The cells were then stimulated with IFNγ (75 ng/mL) (Peprotech Inc., Rocky Hill, NJ, Cat. No. 300-02) and allowed to incubate for 24 hours. The final test compound dose range was 30 μM to 14 nM in 200 μL F12K media containing 5% FBS, 0.3% DMSO.
On day three, the cell media was removed and the cells were washed with 200 μL PBS (phosphate buffered saline). Each well was trypsinized to dissociate the cells, then neutralized by addition of 200 μL complete F12K media. Cells were pelleted and stained with an APC conjugated mouse anti-human ICAM-1 (CD54) (BD Pharmingen, San Diego, CA, Catalog #559771) antibody for 20 minutes at 4° C. Cells were washed with ice cold FACS buffer (PBS+2% FBS) and surface ICAM-1 expression was analyzed by flow cytometry. Detection was performed using a BD LSR I System Flow Cytometer, purchased from BD Biosciences of San Jose, California Events were gated for live scatter and the geometric mean was calculated (Becton-Dickinson CellQuest software version 3.3, Franklin Lakes, NJ). Geometric means were plotted against the compound concentration to generate a dose response curve.

[3] = Homo sapiens, A549, A549 epithelial line stimulated with IFNγ
[4] = A549 epithelial line stimulated with IFNγ

SMILES | IC50 ([1]; Homo sapiens, Ramos) | IC50 [2, 3] | IC50 [1] | IC50 [2, 4]
N#CCOc1ccc(Nc2nc(Nc3ccc(S(N)(=O)=O)cc3)ncc2F)cc1Cl [Compound I-41, N2-(4-Aminosulfonylphenyl)-N4-(3-chloro-4-cyanomethoxyphenyl)-5-fluoro-2,4-pyrimidinediamine] | 0.0374 µM | 10.2 µM | – | –
CN1CCN(S(=O)(=O)c2cccc(Nc3ncc(F)c(Nc4cccc(OCC#N)c4)n3)c2)CC1 [Compound I-5, N4-(3-Cyanomethoxy)phenyl-5-fluoro-N2-[3-(4-methylpiperazin-1-yl)sulfonyl]phenyl-2,4-pyrimidinediamine] | – | – | 1.65 µM | 29.9 µM
Cc1cc(Nc2nc(Nc3ccc(S(=O)(=O)N4CCN(C)CC4)cc3)ncc2F)cc(C)c1OCC#N [Compound I-40, N4-(4-Cyanomethoxy-3,5-dimethylphenyl)-5-fluoro-N2-[4-(4-methylpiperazin-1-yl)sulfonylphenyl]-2,4-pyrimidinediamine] | 0.308 µM | 31 µM | – | –

The remaining lines, values ahead:

IC50 ([1]; Homo sapiens, Ramos) | IC50 [2, 3] | IC50 [1] | IC50 [2, 4] | SMILES
– | – | 0.522 µM | 21 µM | CN1CCN(S(=O)(=O)c2ccc(Nc3ncc(F)c(Nc4cccc(OCC#N)c4)n3)cc2)CC1 [Compound I-6, N4-(3-Cyanomethoxy)phenyl-5-fluoro-N2-[4-(4-methylpiperazin-1-yl)sulfonyl]phenyl-2,4-pyrimidinediamine]
– | – | 0.781 µM | 30.7 µM | CN1CCN(S(=O)(=O)c2ccc(Nc3ncc(F)c(Nc4ccc(CC#N)cc4)n3)cc2)CC1 [III-6, N4-(4-Cyanomethyl)phenyl-5-fluoro-N2-[4-(4-methylpiperazin-1-yl)sulfonyl]phenyl-2,4-pyrimidinediamine]

From patent US11827628B2, “Compositions and methods for inhibition of the JAK pathway” (Rigel Pharmaceuticals, Inc., priority 2005, dated 2023)
